Experimental data published in patent US10519504B2, “Methods for treatment of oncological disorders using epimetabolic shifters, multidimensional intracellular molecules, or environmental influencers” (Berg LLC, priority 2009, dated 2019).

Experiments:
[1] = test system: Pancreatic Cancer Cells (PaCa2); test: Real-time PCR Angiogenesis Array; assay type: cell-based
Method: Experiments were carried out essentially as described above.

[2] = test system: HepG2 (liver cancer) cells; test: Real-time PCR Angiogenesis Array; assay type: cell-based; conditions: 100 μM Q10, genes: ANGPTL3, ANGPTL4, CXCL1, CXCL3, CXCL5, ENG, ID3, MMP2, TIMP3
Method: The treatment was initiated on 1×10^5 cells per well, following the procedure utilized in the PaCa2 cells (above Examples 9-11). However, the total amount of RNA that was extracted from these samples was lower than expected. Reverse transcription is normally done using 1 μg of total RNA (determined by measurement at 260 nm). The maximum volume that can be used per reverse transcription is 8 μl.

[3] = test system: Pyruvate Dehydrogenase-B (PDH-E1); test: Western blot, Pyruvate Dehydrogenase beta levels; assay type: cell-based, human
Method: The pyruvate kinase blots were stripped by incubating for 30 minutes with methanol, followed by two 10 minute washes with TBS-T, then 30 minutes of incubation with Stripping buffer at 50 deg C., and followed by two washes with 100 ml or more of TBS-T for 30′ each. The 2 blots were scanned in laser scanner to check for complete stripping. After making sure stripping of the antibody and the ECF reagent has worked, the blots were activated with methanol for 5 seconds, washed with water for 5 minutes, and TBST for 15 minutes. The blots are blocked for 1 hour with 5% blocking reagent in TBS-T at room temperature and then washed 3 times with TBS-T (1X−15′; 2X5′ each) and probed with the antibody for Pyruvate Dehydrogenase in 5% BSA (ABNOVA catalog #H00005162-M03) at 1:500 dilutions) overnight at 4 deg C. with shaking. After the overnight incubation with primary antibody for Pyruvate Dehydrogenase, the membranes were washed 3 times with TBS-T (1X−15′; 2X5′ each) and probed with the secondary antibody (antimouse; 1:10,000 dilution) for 1 h on the orbital tilting shaker at room temperature. […]
The levels of LDH and PDH were determined by probing the blots successively with primary antibodies for LDH and PDH, essentially as described above. […]

Hif1 alpha = test: Western blot, Hif1 alpha levels; assay type: cell-based, human
Method: The Actin blots were stripped by incubating for 30 minutes with methanol, followed by two 10 minute washes with TBS-T, then 30 minutes of incubation with Stripping buffer at 50 deg C., and followed by two washes with 100 ml or more of TBS-T for 30′ each. The blots were scanned in laser scanner to check for complete stripping. The blots were activated with methanol for 5 seconds, washed with water for 5 minutes, and TBST for 15 minutes. The blots were blocked for 1 hour with 5% blocking reagent in TBS-T at room temperature and then washed 3 times with TBS-T (1X−15′; 2X5′ each) and probed with the primary antibody for Hif 1 alpha, Caspase 3 or PDHB in 5% BSA (at 1:200 by incubation overnight at 4 deg C. with gentle shaking. The primary antibody for Hif 1 alpha (Abcam ab2185; antirabbit) was at 1:500 dilution in 5% BSA. The primary antibody for Caspase 3 (Santacruz sc7272; antirabbit) was at 1:200 dilution in 5% BSA. The primary antibody for Pyruvate Dehydrogenase beta (PDHB) (Novus Biologicals H00005162-M03; antimouse) was at 1:500 dilution in 5% BSA. After incubation with primary antibodies, the membranes were washed 3 times with TBS-T (1X−15′; 2X5′ each) and probed with the secondary antibody (PDHB antimouse; Hif 1a and Caspase 3 antirabbit; 1:10,000 dilution) for 1 h at room temperature. […]

In the case of COC1=C(OC)C(=O)C(C/C=C(\C)CC/C=C(\C)CC/C=C(\C)CC/C=C(\C)CC/C=C(\C)CC/C=C(\C)CC/C=C(\C)CC/C=C(\C)CC/C=C(\C)CCC=C(C)C)=C(C)C1=O [Q10, Coenzyme Q10], the “angiogenesis array genes (AKT1, ANGPTL4 ... VEGFA, VEGFB as listed)” value ([1]; 100 uM Q10) is reported as “modulated by Q10 treatment”, the “genes from the angiogenesis array whose expression is regulated” value ([1]; 100 μM Q10, genes: ANGPTL4, CDH5, FGF1, AKT1, ANPEP, CCL2, CXCL1, EDG1, EFNB2, EGF, ILIB, IL8, KDR, NRP1, PECAM1, PROK2, SPHK1, STAB1, VEGFA) is reported as “A list of genes from the angiogenesis array whose expression is regulated” and the “genes regulated in the Angiogenesis Arrays” value [2] is reported as “List of genes regulated in the Angiogenesis Arrays”. For the same compound, the “expression of PDH-E1” value ([3]; cancer cells) was “progressive increase in the expression of the PDH-E1 proteins”, the “expression of PDH-E1” value ([3]; normal cells) was “minimal changes in the normal cells” and the “Hif1 alpha protein levels” value (Hif1 alpha; mitochondrial preparations of cancer cells) was “decreased Hif1 alpha protein levels”. For the same compound, the Hif1a lower band (Hif1 alpha; whole cell lysates of normal cells) was “showed a decrease as well”.
